Source: patent publication US4540513A, “Decapeptide having gonadotropin releasing activity” (Kanegafuchi Kagaku Kogyo Kabushiki Kaisha, priority 1984, dated 1985)
Where a SMILES comes first, the peptide text is derived from it. [ ]: non-standard residue; d: D form. pGlu = O=C1CC[C@@H](C(=O)O)N1

System: rat prehypophysis (anterior pituitary) cells
Assay: Gonadotropin (LH and FSH) releasing activity, monolayer culture of rat prehypophysis cells, radioimmunoassay of the supernatant
Type: cell-based
Protocol: The synthetic or natural decapeptides prepared in Example 1 was dissolved in 1N acetic acid so that the concentration was 1 μg/ml.
A series of half dilutions from 10.24 ng/ml to 10 pg/ml was prepared from the above solution.
Each sample solution in the series was dried in a rotary evaporator by evaporating 1N acetic acid.
The releasing activity was measured by monolayer culture method using rat prehypohysis cells. After rat prehypophysis cells were disperesed with tripsin and Viokase, the dispersed cells were washed well with a culture medium [Dulbecco's modified Eagle's medium (DMEM) containing 100 unit/ml gentamicin, 2.5 μ/ml fungizone, 5% horse serum, 5% human serum, and 2.5% fetal bovine serum]. The cells were inoculated at a density of 5×10^4 cells in each well of a plastic culture tray having 96 wells and precultured for 4 days.
Samples to be tested for gonadotropin releasing activity were added to the fifth-day culture and the culture was further incubated for 24 hours at 37° C. in the presence of 5% CO2.
On the fifth day of the culture the above dried peptide sampls were dissolved in 0.5 ml of the Dulbecco's modified Eagle's medium (DMEM), 0.2 ml of aligot was aded to each well, and the cells were cultured in the well for additional 24 hours.
After the culture, the supernatent of the culture was withdrawn and assayed for LH and FSH with the radio imunoassay kit provided by NIH.

[1] = 24 hours incubation, LH and FSH by radioimmunoassay

NC(=O)CNC(=O)[C@@H]1CCCN1C(=O)[C@H](Cc1ccc(O)cc1)NC(=O)[C@H](Cc1c[nH]c2ccccc12)NC(=O)CNC(=O)[C@H](Cc1c[nH]cn1)NC(=O)[C@H](CO)NC(=O)[C@H](Cc1c[nH]c2ccccc12)NC(=O)[C@H](Cc1c[nH]cn1)NC(=O)[C@@H]1CCC(=O)N1 [decapeptide of the present invention, pGlu-His-Trp-Ser-His-Gly-Trp-Tyr-Pro-Gly-NH2] ([pGlu]HWSHGWYPG-NH2)
lowest detectable amount [1]: 160 pg/mL
specific activity at the half maximum dose [1]: 3.1 ng/mL
LH and FSH releasing activity, specific activity relative to conventional LH-RH (% of the conventional LH-RH in specific activity): 30%
gonadotropin-releasing potency relative to mammalian LHRH (bioassay with rat anterior pituitary cells, % of that of mammalian LHRH): about 32%
gonadotropin-releasing potency relative to chicken LHRH (bioassay with rat anterior pituitary cells, times more potent than chicken LHRH): 8 times
LH releasing activity at the maximum dose relative to control (maximum dose, bigger than that of the control): about 3.5 times
LH releasing activity at the maximum dose (maximum dose, control 200 ng/ml LH): 3200 ng/ml LH
activity of the purified relative to the starting material (purified from chicken hypothalamus extract, times more than the starting material): about 15×10^8 times
